From patent publication US11673892B2, “Bicyclic compounds for use as RIP1 kinase inhibitors” (Genentech, Inc., priority 2017, dated 2023) come the findings set out here.

Each structure is given as a SMILES string.

For this test, the target named is T1, human RIP1 kinase domain (2-375) (Homo sapiens, UniProt Q13546).
T1 construct: Purified human RIP1 kinase domain (2-375) (50 nM); made in house; host or cells: baculovirus-infected insect cells
T1 sequence (Q13546 2-375): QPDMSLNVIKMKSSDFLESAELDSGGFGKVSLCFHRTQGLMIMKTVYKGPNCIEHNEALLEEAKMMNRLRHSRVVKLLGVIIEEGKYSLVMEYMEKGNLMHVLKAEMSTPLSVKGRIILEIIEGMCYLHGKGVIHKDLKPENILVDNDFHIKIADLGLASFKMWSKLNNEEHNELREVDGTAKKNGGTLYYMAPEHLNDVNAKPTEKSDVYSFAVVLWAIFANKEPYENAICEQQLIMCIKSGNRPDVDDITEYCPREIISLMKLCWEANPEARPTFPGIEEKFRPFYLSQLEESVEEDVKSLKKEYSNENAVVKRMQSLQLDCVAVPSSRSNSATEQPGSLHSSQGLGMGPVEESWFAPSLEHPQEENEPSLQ
In words: RIP1 kinase inhibition biochemical assay (Transcreener ADP, fluorescence polarization). To be noted: Ki app (Morrison tight-binding fit); 50 nM enzyme, 50 uM ATP, 2 hours incubation. As to the method: RIP1 Kinase Inhibition Assays (Biochemical Assay)
The compounds of the present invention were tested for their capacity to inhibit RIP1K activity as described below.
The ability of the receptor interacting protein kinase (RIPK1) to catalyze the hydrolysis of adenosine-5′-triphosphate (ATP) is monitored using the Transcreener ADP (adenosine-5′-diphosphate) assay (BellBrook Labs). Purified human RIP1 kinase domain (2-375) (50 nM) derived from a baculovirus-infected insect cell expression system is incubated with test compounds for 2 hours in 50 mM Hepes buffer (pH 7.5) containing 30 mM MgCl2, 1 mM dithiothreitol, 50 uM ATP, 0.002% Brij-35, and 0.5% dimethyl sulfoxide (DMSO). Reactions are quenched by the addition of 1× Bell Brooks Stop buffer B (20 mM Hepes (ph7.5), 40 mM ethylenediaminetetraacetic acid and 0.02% Brij-35) containing an additional 12 mM EDTA and 55 ug/mL ADP2 antibody and 4 nM ADP-AlexaFluor® 633 tracer. The tracer bound to the antibody is displaced by the ADP generated during the RIP1K reaction, which causes a decrease in fluorescence polarization that is measured by laser excitation at 633 nm with a FP microplate reader M1000. Fractional activity was plotted against test article concentration. Using Genedata Screener software (Genedata; Basel, Switzerland), the data were fit to the tight-binding apparent inhibition constant (Ki^app) Morrison equation [Williams, J. W. and Morrison, J. F. (1979) The kinetics of reversible tight-binding inhibition. Methods Enzymol 63: 437-67]. The following equation was used to calculate fractional activity and Ki^app:
[formula] where [E]T and [I]T are the total concentrations of active enzyme and test article, respectively.
Exemplary compounds of the present invention are provided in Table 1 along with their physiochemical characterization and in vitro RIP1 kinase inhibitory activity data. “Method” in the first column of each table refers to the synthetic method(s) used to prepare each compound as shown in the Examples above. In certain examples, chiral column retention times (min) are provided for certain stereoisomers. Unless otherwise specified, the stereochemistry shown in each structure represents relative configuration of a single stereoisomer, and absolute configuration (i.e., “R” and/or “S”) is arbitrarily assigned. In some embodiments, where the Method is described to include the separation of stereoisomers, a single stereoisomer of a compound of Table 1 is provided.
(In general: Fluorescence polarisation rises when a labelled molecule tumbles more slowly, as on binding a larger partner.)
`CC[C@@](C)(F)c1nc2n(n1)[C@H](c1ccccc1)C[C@@H]2F` (single isomer, unassigned) [Example 32] returned a Ki of 18 nM.

In turn, `F[C@H]1C[C@@H](c2ccccc2)n2nc(-n3nnc4ccccc43)nc21` (single isomer, unassigned) [Example 81] displayed a Ki of 5 nM.

The molecule `F[C@H]1C[C@@H](c2ccccc2)n2nc(CC3CC3(F)F)nc21` (stereo partly drawn) [Example 20, (5S,7S)-2-[(2,2-difluorocyclopropyl)methyl]-7-fluoro-5-phenyl-6,7-dihydro-5H-pyrrolo[1,2-b][1,2,4]triazole] displayed a Ki of 4 nM.

In the case of `[2H]C([2H])(c1nc2n(n1)[C@H](c1ccccc1)C[C@@H]2F)C1CC1` (single isomer, unassigned) [Example 116], the Ki was 7.3 nM.

In turn, `Cc1nn(-c2nc3n(n2)[C@H](c2ccccc2)C[C@@H]3F)c(N)c1C#N` (single isomer, unassigned) [Example 65] displayed a Ki of 720 nM.

`O=Cc1cnn(-c2nc3n(n2)[C@H](c2ccccc2)C[C@@H]3F)c1` [Example 40, 1-[(5S,7S)-7-fluoro-5-phenyl-6,7-dihydro-5H-pyrrolo[1,2-b][1,2,4]triazol-2-yl]pyrazole-4-carbaldehyde] registered a Ki of 52 nM.

Molecule `F[C@H]1C[C@@H](c2ccccc2)n2nc(C3CC3(F)F)nc21` (stereo partly drawn) [Example 28, (5S,7S)-2-(2,2-difluorocyclopropyl)-7-fluoro-5-phenyl-6,7-dihydro-5H-pyrrolo[1,2-b][1,2,4]triazole] registered a Ki of 70 nM.

As to `F[C@H]1C[C@@H](c2ccccc2)n2nc(CCC(F)(F)F)nc21` (single isomer, unassigned) [Example 18], the Ki was 12 nM.

`Fc1ccccc1[C@@H]1C[C@H](F)c2nc(CC3CC3(F)F)nn21` (stereo partly drawn) [Example 112, (5S,7S)-2-[(2,2-difluorocyclopropyl)methyl]-7-fluoro-5-(2-fluorophenyl)-6,7-dihydro-5H-pyrrolo[1,2-b][1,2,4]triazole] came in with a Ki of 4.5 nM.

In turn, `O[C@H](c1nc2n(n1)[C@H](c1ccccc1)C[C@@H]2F)C1CC1` (single isomer, unassigned) [Example 34] returned a Ki of 904 nM.

Regarding `Fc1cnn(-c2nc3n(n2)[C@H](c2ccccc2)C[C@@H]3F)c1` (single isomer, unassigned) [Example 58], the Ki was 9 nM.

Regarding `N#CC1CC(=Cc2nc3n(n2)[C@H](c2ccccc2)C[C@@H]3F)C1` (mixture of isomers) [Example 55, 3-[[rac-(5S,7S)-7-fluoro-5-phenyl-6,7-dihydro-5H-pyrrolo[1,2-b][1,2,4]triazol-2-yl]methylene]cyclobutanecarbonitrile], the Ki is 130 nM.

As for `[2H][C@@](F)(c1nc2n(n1)[C@H](c1ccccc1)C[C@@H]2F)C1CC1` (single isomer, unassigned) [Example 111], the Ki came out at 4.9 nM.

As to `CC(C)c1cnn(-c2nc3n(n2)[C@H](c2ccccc2)C[C@@H]3F)c1` (single isomer, unassigned) [Example 39], the Ki came to 30 nM.

Molecule `F[C@H]1C[C@@H](c2ccccc2)n2nc(-n3ccnc3Cl)nc21` (single isomer, unassigned) [Example 69] yielded a Ki of 86 nM.

The molecule `F[C@@H]1C[C@H](c2ccccc2)n2nc(C(F)(F)C3CC3)nc21` (racemic) [Example 5] had a Ki of 27 nM.

In turn, `CC[C@@H](F)c1nc2n(n1)[C@H](c1ccccc1)C[C@@H]2F` (racemic) [Example 7, rac-(5S,7S)-7-fluoro-5-phenyl-2-[rac-(1R)-1-fluoropropyl]-6,7-dihydro-5H-pyrrolo[1,2-b][1,2,4]triazole] returned a Ki of 4 nM.

In turn, `Cc1cnn(-c2nc3n(n2)[C@H](c2ccccc2)C[C@@H]3F)c1` (single isomer, unassigned) [Example 25] displayed a Ki of 17 nM.

`Cn1cc(/C=C/c2nc3n(n2)[C@H](c2ccccc2)C[C@@H]3F)cn1` (single isomer, unassigned) [Example 49] displayed a Ki of 1200 nM.

On to `N#Cc1cnn(-c2nc3n(n2)[C@H](c2ccccc2)C[C@@H]3F)c1` (single isomer, unassigned) [Example 54], for which the Ki was determined as 41 nM.

The molecule `F[C@H]1C[C@@H](c2ccccc2)n2nc(CC3CCC3)nc21` (stereo in doubt) [Example 94, (5S,7S)-2-(cyclobutylmethyl)-7-fluoro-5-phenyl-6,7-dihydro-5H-pyrrolo[1,2-b][1,2,4]triazole] displayed a Ki of 16 nM.

As for `N#Cc1cccc2c1cnn2-c1nc2n(n1)[C@H](c1ccccc1)C[C@@H]2F` (single isomer, unassigned) [Example 72], the Ki was < 5 nM.

Molecule `F[C@H]1C[C@@H](c2ccccc2)n2nc(-n3ncc4ncccc43)nc21` (single isomer, unassigned) [Example 84] yielded a Ki of 29 nM.

`F[C@H]1C[C@@H](c2ccccc2)n2nc([C@H](F)C3CC3)nc21` (single isomer, unassigned) [Example 107] registered a Ki of 3.5 nM.

Consider `N#CC1CC1c1nc2n(n1)[C@H](c1ccccc1)C[C@@H]2F` (mixture of isomers) [Example 16, Trans-2-[(5S,7S)-7-fluoro-5-phenyl-6,7-dihydro-5H-pyrrolo[1,2-b][1,2,4]triazol-2-yl]cyclopropanecarbonitrile], for which the Ki came to 51 nM.

For the molecule `COc1cnn(-c2nc3n(n2)[C@H](c2ccccc2)C[C@@H]3F)c1` (single isomer, unassigned) [Example 57], the Ki amounted to 130 nM.

`CCC(F)c1nc2n(n1)C(c1ccccc1)CC2F` (stereo not drawn) [Example 3, Cis-7-fluor-2-(1-fluoropropyl)-5-phenyl-6,7-dihydro-5H-pyrrolo[1,2-b][1,2,4]triazole] displayed a Ki of 51 nM.

With `F[C@H]1C[C@@H](c2ccccc2)n2nc(C#CC3CC3)nc21` [Example 43, (5S,7S)-2-(2-cyclopropylethynyl)-7-fluoro-5-phenyl-6,7-dihydro-5H-pyrrolo[1,2-b][1,2,4]triazole], the Ki turned out to be 450 nM.

In the case of `CCC(F)(F)c1nc2n(n1)C(c1ccccc1)CC2F` (racemic) [Example 2, Cis-2-(1,1-difluoropropyl)-7-fluoro-5-phenyl-6,7-dihydro-5H-pyrrolo[1,2-b][1,2,4]triazole], the Ki came to 41 nM.

`CCc1nc2n(n1)[C@H](c1ccccc1)C[C@@H]2F` [Example 36, (5S,7S)-2-ethyl-7-fluoro-5-phenyl-6,7-dihydro-5H-pyrrolo[1,2-b][1,2,4]triazole] yielded a Ki of 49 nM.

For the molecule `CCCc1nc2n(n1)[C@H](c1ccccc1)C[C@@H]2F` (single isomer, unassigned) [Example 14], the Ki amounted to 28 nM.

As to `N#Cc1ccc2c(c1)nnn2-c1nc2n(n1)[C@H](c1ccccc1)C[C@@H]2F` (racemic) [Example 85, 1-[rac-(5S,7S)-7-fluoro-5-phenyl-6,7-dihydro-5H-pyrrolo[1,2-b][1,2,4]triazol-2-yl]benzotriazole-5-carbonitrile], the Ki was found to be 19 nM.

`F[C@H]1C[C@@H](c2ccccc2)n2nc(-n3nnc4ccncc43)nc21` (single isomer, unassigned) [Example 83]: the Ki was 36 nM.

With `FC1CC(c2ccccc2)n2nc(C(F)(F)F)nc21` (racemic) [Example 12, Cis-7-fluoro-5-phenyl-2-(trifluoromethyl)-6,7-dihydro-5H-pyrrolo[1,2-b][1,2,4]triazole], the Ki was found to be 130 nM.

`F[C@H]1C[C@@H](c2ccccc2)n2nc(-c3cnoc3)nc21` (single isomer, unassigned) [Example 99] gave a Ki of 140 nM.

For `CC(F)(F)C(O)c1nc2n(n1)[C@H](c1ccccc1)C[C@@H]2F` (stereo partly drawn) [Example 117, 2,2-difluoro-1-[(5S,7S)-7-fluoro-5-phenyl-6,7-dihydro-5H-pyrrolo[1,2-b][1,2,4]triazol-2-yl]propan-1-ol], the Ki turned out to be 420 nM.

Consider `CC(C)(C#N)c1nc2n(n1)[C@H](c1ccccc1)C[C@@H]2F` (racemic) [Example 103, 2-[rac-(5S,7S)-7-fluoro-5-phenyl-6,7-dihydro-5H-pyrrolo[1,2-b][1,2,4]triazol-2-yl]-2-methyl-propanenitrile], for which the Ki is 220 nM.
